Assay results published in patent publication US20260041683A1, “Compounds with Anti-Acinetobacter Baumannii Activity” (University of Kentucky Research Foundation, priority 2022, published 2026).
Values after ≈ are worked out from the molar mass of the structure shown.

How the values were obtained:
[1] = test system: all 43 strains of A. baumannii (41 CDC strains and 2 ATCC strains); experiment: MIC value statistics for all A. baumannii strains; type: cell-based, Acinetobacter baumannii; details: of 43 A. baumannii strains
Procedure: All bacterial strains listed above were stored at −80° C. All strains were streaked on Mueller-Hinton (MH) plates and allowed to grow at 37° C. overnight. Enough colonies were scraped from the plate and suspended in MH broth with vortexing to reach an attenuance at 600 nm (OD600) of ˜0.5. The resulting culture was diluted 1:1000 and added to the prepared serially doubly diluted compound solutions in 96-well plates. […]. For each row, one well was reserved for sterile control (which consisted of 200 μL of MH medium) and another well was reserved for growth control (which consisted of 100 μL of MH medium seeded with 100 μL of bacterial culture).
Having established that the observed activity is selective to A. baumannii, all synthesized compounds were tested against a panel of antibiotic resistant A. baumannii from the Antimicrobial Resistant (AR) Isolate Bank from the CDC along with strains I and J (Table Si). […]. Based on this statistical analysis, the best compound is 5e followed closely by 3e.

Ab ATCC 19606 (strain I) = experiment: MIC determination (double dilution, Mueller-Hinton broth); type: cell-based, Acinetobacter baumannii; details: Acinetobacter baumannii, ATCC19606; Table 1; control strain; read-out: MIC Ab ATCC 19606
Procedure: All bacterial strains listed above were stored at −80° C. All strains were streaked on Mueller-Hinton (MH) plates and allowed to grow at 37° C. overnight. […] The resulting culture was diluted 1:1000 and added to the prepared serially doubly diluted compound solutions in 96-well plates. For M. smegmatis, a 1:100 dilution of the bacteria was done in MH. All MIC values were determined using 96-well plates with low evaporation seals at least in duplicate. For each row, one well was reserved for sterile control (which consisted of 200 μL of MH medium) and another well was reserved for growth control (which consisted of 100 μL of MH medium seeded with 100 μL of bacterial culture).
(§1) Minimum inhibitory concentrations (MIC) of all compounds from the series were measured in liquid cultures of different Ab strains by a double-dilution method in Mueller-Hinton broth. Initially, the activity of all 46 compounds against Ab ATCC 19606 (a control strain) and Ab ATCC BAA1605 (a multidrug-resistant strain) (Table 1; data shown for 27 representative compounds) was measured.

[2] = test system: Ab ATCC BAA1605 (strain J, multidrug-resistant); experiment: MIC determination; type: cell-based; details: Acinetobacter baumannii; Table 1; multidrug-resistant strain; read-out: MIC Ab ATCC BAA 1605
Procedure: All bacterial strains listed above were stored at −80° C. All strains were streaked on Mueller-Hinton (MH) plates and allowed to grow at 37° C. overnight. Enough colonies were scraped from the plate and suspended in MH broth with vortexing to reach an attenuance at 600 nm (OD600) of ˜0.5. The resulting culture was diluted 1:1000 and added to the prepared serially doubly diluted compound solutions in 96-well plates. For M. smegmatis, a 1:100 dilution of the bacteria was done in MH. All MIC values were determined using 96-well plates with low evaporation seals at least in duplicate. For each row, one well was reserved for sterile control (which consisted of 200 μL of MH medium) and another well was reserved for growth control (which consisted of 100 μL of MH medium seeded with 100 μL of bacterial culture).
as §1

| number of compound/strain combinations with MIC value 0.25 μg/mL [1] | number of compound/strain combinations with MIC value 0.5 μg/mL [1] | number of compound/strain combinations with MIC value 1 μg/mL [1] | number of compound/strain combinations with MIC value 2 μg/mL [1] | number of compound/strain combinations with MIC value ≤0.125 μg/mL [1] | number of compound/strain combinations with MIC value >64 μg/mL [1] | MIC (Ab ATCC 19606 (strain I)) [µg/mL] | MIC [2] [µg/mL] | SMILES |
| --- | --- | --- | --- | --- | --- | --- | --- | --- |
| 34 | 2 |  |  | 7 |  | 0.125 (≈ 0.441 µM) | 0.0625 (≈ 0.22 µM) | O=C(NNc1ccc(Cl)cc1)c1nc(F)ccc1F [Compound 8e] |
| 8 | 19 | 15 |  | 1 |  |  |  | O=C(NNc1ccc(Cl)cc1)c1cnccn1 [Compound 9e] |
|  |  |  |  |  | 43 |  |  | CCOC(=O)CNNC(=O)c1cnccn1 [Compound 9g] |
|  |  |  |  |  | 43 |  |  | O=C(NNC1CCCCC1)c1cnccn1 [Compound 9h] |
| 19 | 17 | 1 |  | 6 |  | 0.25 (≈ 1.09 µM) | 0.5 (≈ 2.17 µM) | O=C(NNc1cccc(F)c1)c1ccccc1 [Compound 10a] |
| 11 | 26 | 4 |  | 2 |  | 0.25 (≈ 1.08 µM) | 0.5 (≈ 2.16 µM) | O=C(NNc1cccc(F)c1)c1cccnc1 [Compound 11a] |
| 15 | 19 | 4 |  | 5 |  |  |  | O=C(NNc1ccc(Cl)cc1)c1cccnc1 [Compound 11e] |
|  |  |  |  |  | 43 | > 64 | > 64 | O=C(NNC1CCCCC1)c1cccnc1 [Compound 11h] |
| 6 | 19 | 15 | 3 |  |  |  |  | O=C(NNc1cccc(F)c1)c1cnc2ccccc2n1 [Compound 13a] |
| 9 | 22 | 12 |  |  |  | 0.5 (≈ 1.67 µM) | 0.25 (≈ 0.837 µM) | O=C(NNc1ccc(Cl)cc1)c1cnc2ccccc2n1 [Compound 13e] |
| 13 | 25 | 5 |  |  |  | 0.25 (≈ 0.928 µM) | 0.25 (≈ 0.928 µM) | O=C(NNc1cccc(F)c1)c1cc2ccccc2[nH]1 [Compound 14a] |
| 21 | 16 |  |  | 6 |  |  |  | O=C(NNc1cccc(F)c1)c1ccco1 [Compound 15a] |
| 10 | 15 | 14 |  | 4 |  |  |  | CCC(=O)NNc1cccc(F)c1 [Compound 16a] |

The remaining lines, values behind:

| SMILES | number of compound/strain combinations with MIC value 0.25 μg/mL [1] | number of compound/strain combinations with MIC value 0.5 μg/mL [1] | number of compound/strain combinations with MIC value 1 μg/mL [1] | number of compound/strain combinations with MIC value 2 μg/mL [1] | number of compound/strain combinations with MIC value ≤0.125 μg/mL [1] | number of compound/strain combinations with MIC value >64 μg/mL [1] | MIC (Ab ATCC 19606 (strain I)) [µg/mL] | MIC [2] [µg/mL] |
| --- | --- | --- | --- | --- | --- | --- | --- | --- |
| O=C(NNc1cccc(F)c1)c1ccc(F)cc1F [Compound 1a] | 3 | 26 | 9 | 4 | 1 |  |  |  |
| CCOC(=O)CNNC(=O)c1ccc(F)cc1F [Compound 1g] |  |  |  |  |  | 43 |  |  |
| O=C(NNC1CCCCC1)c1ccc(F)cc1F [Compound 1h] |  |  |  |  |  | 43 |  |  |
| O=C(NNc1cccc(F)c1)c1ccccn1 [Compound 2a] | 10 | 18 | 10 | 3 | 2 |  | 2 (≈ 8.65 µM) | 0.5 (≈ 2.16 µM) |
| CCOC(=O)CNNC(=O)c1ccccn1 [Compound 2g] |  |  |  |  |  | 43 |  |  |
| CCOC(=O)CNNC(=O)c1ccc(F)cn1 [Compound 3g] |  |  |  |  |  | 43 | > 64 | > 64 |
| O=C(NNc1cccc(F)c1)c1ccc(Br)cn1 [Compound 4a] | 2 | 8 | 19 | 14 |  |  | 0.5 (≈ 1.61 µM) | 0.5 (≈ 1.61 µM) |
| O=C(NNc1cccc(F)c1)c1cccc(F)n1 [Compound 5a] | 1 | 8 | 25 | 9 |  |  |  |  |
| CCOC(=O)CNNC(=O)c1cccc(F)n1 [Compound 5g] |  |  |  |  |  | 43 | > 64 | > 64 |
| O=C(NNc1cccc(F)c1)c1cccc(Br)n1 [Compound 6a] | 4 | 16 | 19 | 4 |  |  | 0.5 (≈ 1.61 µM) | 0.5 (≈ 1.61 µM) |
| O=C(NNc1cccc(F)c1)c1ncc(F)cc1F [Compound 7a] | 5 | 19 | 18 |  | 1 |  |  |  |
| O=C(NNc1ccc(Cl)cc1)c1ncc(F)cc1F [Compound 7e] | 28 | 7 |  |  | 8 |  | 0.125 (≈ 0.441 µM) | 0.125 (≈ 0.441 µM) |
| O=C(NNc1cccc(F)c1)c1nc(F)ccc1F [Compound 8a] | 11 | 12 | 18 |  | 2 |  |  |  |
